US6835734B2, “1,3-dioxolanes with antitussive activity” (Dompé S.p.A., priority 2000, dated 2004)

Tests used:
[1] = test system: male Dunkin-Hartley Guinea pigs; assay: capsaicin aerosol-induced cough after intravenous administration; assay type: in vivo, Guinea pig; conditions: for recorded cough strokes / inhibition of the response to the tussigenic stimulus: 10 mg/kg intravenous, 0.0045% capsaicin aerosol 5 minutes after administration; for recorded cough strokes: during the 4 minute aerosol; for inhibition of the response to the tussigenic stimulus: strokes recorded during 4 minute aerosol
Method: The tests were carried out on male Dunkin-Hartley Guinea pigs (4-6 animals for group), which were subjected to aerosol of a 0.0045% (p/v) capsaicin aqueous solution [Lavezzo A., Pulm. Pharmacol., 5, 143-147, 1992; Gallico L. et al, Br. J. Pharmacol., 112, 795-800. 1994] 5 minutes after intravenous administration of 0.5 ml of a (−)-1,2-cyclohexylidene-3-(4-phenyl-piperazin-1-yl)-propane-1,2-diol fumarate solution (DF 1689A, 10 mg/kg) compared with 0.5 ml of a levodropropizine solution, pH 4.5 (10 mg/kg) and with an equal volume of saline solution (control).

[2] = test system: male Dunkin-Hartley Guinea pigs; assay: cough strokes after aerosol administration of the medicaments; assay type: in vivo, Guinea pig; conditions: aerosol with 1% (w/v) aqueous solution for 10 minutes, compared with saline aerosol controls

Row | SMILES | recorded cough strokes [1] | inhibition of the response to the tussigenic stimulus [1] [%] | inhibitory effect on number of cough strokes [2] | inhibition on the tussigen stimulus induced by capsaicin aerosol ([1]; 15 minutes after the intravenous administration) [%] | inhibition on the tussigen stimulus induced by capsaicin aerosol ([1]; 30 minutes after the intravenous administration) [%]
1 | OCC(O)CN1CCN(c2ccccc2)CC1 (single isomer, unassigned; (-)) [levodropropizine, (−) 3-(4-phenyl-piperazin-1-yl)-1,2-propanediol, reference compound] | 5.17±0.54 | 43.6 | about 35% |  | 
2 | O=C(O)/C=C/C(=O)O.c1ccc(N2CCN(C[C@H]3COC4(CCCCC4)O3)CC2)cc1 [DF 1689A, S(−)-1,2-cyclohexylidene-3-(4-phenyl-piperazin-1-yl)propane-1,2-diol fumarate] | 4.83±0.54 | 47.3 | about 35% | 34.6 | 27.3
